From US20210206773A1, “DRUG FOR TREATING DISORDERS OF CORNEAL EPITHELIUM” (EA PHARMA CO., LTD., priority 2014, published 2021)

Legend:
dry eye model rat = assay: Therapeutic effect on corneal surface injury in dry eye model rat (lacrimal glands removed); type: in vivo; conditions: 5 μL of aqueous solution 0.05 w/v % (1.5 mM) three times a day, 1 to 5 weeks after removal of lacrimal glands
Procedure: The lacrimal glands of a rat were removed, and a dry eye model was produced. After 1 to 5 weeks from the removal of lacrimal glands, 5 μL of an aqueous solution containing Compound (1aa) (0.05 w/v %, 1.5 mM) was administered to the rat three times a day. The value is expressed as average value±S.E.M., *P<0.05; and **P<0.01.

[1] = test system: HCE cells (human corneal epithelial cells); assay: Suppressive effect on cell injury under hyperosmotic conditions (MTT method); type: cell-based; conditions: 24 hours, hyperosmotic medium with 150 mM NaCl and 160 mM NaCl, or 320 mM glucose, FIG. 1 to FIG. 3
Procedure: HCE cells (human corneal epithelial cells) were cultured for 24 hours in a hyperosmotic medium containing a compound of Formula (1aa) (hereinafter, Compound (1aa)) (as a hydrate). The medium was adjusted to fulfill the hyperosmotic conditions using 150 mM NaCl and 160 mM NaCl, or 320 mM glucose. The number of live cells was measured by the MTT method, and relative values of light absorbance with respect to the light absorbance of the control (isotonic pressure conditions) were calculated. The value is expressed as average value±S.D. (n=3), **P<0.01.

HCE cells = assay: Suppressive effect on apoptosis under hyperosmotic conditions (caspase-3-like activity, fluorescent peptide substrate); type: cell-based, human; conditions: 160 mM NaCl, 3 hours and 6 hours, FIG. 5
Procedure: HCE cells were cultured in a hyperosmotic medium containing Compound (1aa) and 160 mM NaCl. After culturing for 3 hours and 6 hours, caspase-3-like activity, which is a marker for apoptosis, was measured using a fluorescent peptide substrate, and the results are presented in FIG. 5. The value is expressed as average value±S.D. (triplicate), **P<0.01, and the term n.s. means “not significant”.

[2] = test system: HCE cells (human corneal epithelial cells); assay: Suppressive effect on cell injury caused by ethanol (MTT method); type: cell-based; conditions: 4 v/v % ethanol, FIG. 4
Procedure: HCE cells (human corneal epithelial cells) were cultured in a medium containing Compound (1aa) and 4 v/v % ethanol. The number of live cells was measured by the MTT method, and relative values of light absorbance with respect to the light absorbance of the control (absence of ethanol) were calculated. The value is expressed as average value±S.D. (n=3), *P<0.05; and **P<0.01.

[3] = test system: muc1 and muc16 messenger RNAs in HCE cells; assay: Change in amount of expression of mucin messenger RNA (real time RT-PCR); type: cell-based, human; conditions: 3 hours and 24 hours, FIG. 8
Procedure: HCE cells were cultured in a medium containing Compound (1aa). The amounts of expression of muc1 and muc16 messenger RNAs after culturing for 3 hours and 24 hours were measured by a real time RT-PCR method. Relative values of the amount of expression with respect to the amount of expression of actin messenger RNA were calculated, and the results are presented in FIG. 8. The value is expressed as average value±S.D. (triplicate), *P<0.05; and **P<0.01.

Compound: O=C1NCC2=C1[C@@H](c1ccccc1)N(C(=O)CO)[C@@H]1CCCC[C@H]1N2 [Compound (1aa), (1R,8R,10R)-9-(2-hydroxyacetyl)-8-phenyl-2,5,9-triazatricyclo[8.4.0.0^3,7]tetradeca-3(7)-en-6-one]
- amount of lacrimal fluid (cotton thread test) (dry eye model rat; FIG. 6): increasing the amount of lacrimal fluid
- injury of the corneal surface (fluorescein scores) (dry eye model rat; FIG. 7): suppressed injury of the corneal surface
- survival rate of corneal epithelial cells under hyperosmotic conditions (number of live cells, relative light absorbance vs control) [1]: noticeably suppressed the decrease in the survival rate of corneal epithelial cells
- hyperosmotic stress-dependent apoptosis (caspase-3-like activity) (HCE cells): noticeably suppressed hyperosmotic stress-dependent apoptosis
- survival rate of corneal epithelial cells with ethanol (number of live cells, relative light absorbance vs control) [2]: noticeably suppressed the decrease in the survival rate of corneal epithelial cells
- amount of expression of mucin (muc1 and muc16 messenger RNAs relative to actin messenger RNA) [3]: increases the amount of expression of mucin
